Entries after “also recorded” stand apart in the source; their conditions may differ.
System: T47D cells
Assay: Whole-cell cAMP luminescence polarization assay of modulators (FIG. 13)
Assay type: cell-based
Protocol: • (a) Preparation of 1:75 cAMP antibody working stock. Dilute the 300× cAMP antibody stock 1:75 in cAMP assay buffer (0.05 M HEPES, pH 7.5, 150 mM NaCl, 0.1% bovine gamma globulin) (e.g., by adding 14 μL of the 300× cAMP antibody stock to 1036 μL of cAMP assay buffer). 10 μL of this working stock solution will be added to the assay plate, as indicated in the plate layout in FIG. 9. • (b) Preparation of cAMP tracer working stock. Dilute the 500× cAMP tracer stock 1:125 in cAMP assay buffer (e.g., by adding 10 μL of the 500× cAMP tracer stock to 1240 μL of cAMP assay buffer). 10 μL of this working stock solution will be added to the assay plate, as indicated in the plate layout in FIG. 9. • (c) Preparation of cAMP calibration curve. Dilute the cAMP calibrator 1:25 in cAMP assay buffer (e.g., by adding 10 μL cAMP calibrator to 240 μL cAMP assay buffer) to give 10 μM cAMP calibrator or 400 pmol in final assay. Prepare seven 1:3 serial dilutions to give 3.33, 1.11, 0.37, 0.12, 0.041, 0.014, and 0.005 μM cAMP (133 to 0.125 pmol in final assay). • (d) Preparation of samples. […] A plastic plate cover may be used to prevent possible evaporation, but care should be taken with plastic plate sealers, which may introduce undesirable background fluorescence. • (e) Read plate using a light detection device capable of generating and detecting polarized light. […]

Compound	cAMP production (cAMP levels) (cultured adherent T47D cells, whole cell preparation, forskolin protocol 20 μM final, 15 minutes at 37° C.)	effect on isoproterenol-stimulated cAMP production (cultured T47D cells, endogenous beta receptors, antagonist added to isoproterenol stimulation)
CC(C)NCC(O)c1ccc(O)c(O)c1 (centres unmarked) [isoproterenol]	stimulates cAMP production; also recorded: stimulated	–
CC(C)NCC(O)COc1cccc2ccccc12 (centres unmarked) [propranolol]	–	reversed; also recorded: inhibited
